According to patent publication US11912678B2, “LRRK2 inhibiting compounds and use thereof for treating neurodegenerative diseases” (CONSEJO SUPERIOR DE INVESTIGACIONES CIENTÍFICAS, priority 2018, dated 2024):

Columns and labels:
in vitro = conditions: PAMPA; for Papp at 2.5 h / Pe (10−6 cm s−1): pig, pH 7.4; for Pe (10−6 cm s−1): 2.5 h
Description: The above-referenced commercial compounds, phosphate buffer at pH=7.4 (PBS), Ethanol and dodecane were obtained from the commercial houses Sigma, Acros organics, Merck, Aldrich and Fluka, respectively. […] To filter the samples, PVDF membrane filters were used (30 mm diameter, 0.45 μm pore size) from the company Symta. The equipment used to measure UV absorbance in 96-well plates was a Thermoscientific Multiskan spectrum.
Ten reference compounds were selected, whose blood-brain barrier passage is known, in order to validate the experiment. […] The solutions were filtered. Next, 180 μL of a PBS/EtOH (70/30) solution were added to each well of the acceptor plate. The donor plate was impregnated with 4 μL of a pig brain lipid solution dissolved in dodecane (20 mg mL^−1). After 5 minutes, 180 μL of solution of each compound were added on this plate. Of the compounds whose penetration in the central nervous system is being evaluated, between 1-2 mg were taken and dissolved in 1,500 μL of EtOH and 3,500 μL of PBS phosphate buffer (pH=7.4), filtered and added to the 96-well donor plate. Next, the donor plate was placed on top of the acceptor plate forming a kind of “sandwich” and left to incubate for 2 h and 30 min at 25° C. The passive transport compounds pass from the donor plate through the pig brain lipid to the acceptor plate. After 2 h and 30 min, the donor plate is carefully removed. The concentration and absorbance of both the commercial compounds and the synthesised derivatives that were evaluated in the acceptor and donor plates were determined using a UV absorbance reader. Each sample was analysed at 2 to 5 wavelengths, in at least three wells and in two independent experiments. […] Ten reference commercial compounds whose penetration in the central nervous system is known were used in each experiment in order to validate the method.

LRRK2 = LRRK2 (Homo sapiens (Human), UniProt Q5S007); assay: Inhibition of LRRK2 (Adapta kinase assay); type: biochemical; conditions: Adapta method, 60 min kinase reaction
Method: (§1) The compounds were evaluated in LRRK2 and in the mutated form LRRK2 G2019S. This mutation is more frequent in the familial forms of Parkinson's Disease and has a significant increase in kinase activity. The experimental determination of the inhibition of both enzymes was carried out using the Adapta® method, which is an evaluation method of fluorescent kinase activity that determines ADP in a highly sensitive manner. The methodology can be divided into two stages: kinase reaction and ADP determination. In the first stage, all the components for the kinase reaction are added to the well and incubated for 60 min. After the reaction, the ADP detection solution which contains a Europium-labeled anti-ADP antibody (Alexa Fluor® 647 labeled ADP tracer) and EDTA, to stop the kinase reaction, are added to the reaction well. The ADP formed in the kinase reaction without inhibitor will displace the Alexa Fluor® 647 labeled ADP tracer of the antibody, resulting in the TR-FRET signal decrease.
(§2) The assay is performed in 384-well plates. Adding 100 nL of the solution with the compound to be evaluated in 1% DMSO, 2.4 μL of HEPES solution, 2.5 μL of ATP solution, […] of substrate solution. The 10 μl of the kinase reaction contain: […] LRRK2 and 200 μM ERM (LRRKtide) in 25 mM Tris/7.5 mM HEPES pH 8.2, 0.005% BRIJ-35, 5 mM MgCl2, 0.5 mM EGTA, 0.01% NaN3 or 3-12 ng LRRK2 G2019S and 200 μM ERM (LRRKtide) in 25 mM Tris/7.5 mM HEPES pH 8.2, 0.005% BRIJ-35, 5 mM MgCl2, 0.5 mM EGTA, 0.01% NaN3. The plate is stirred for 30 s on a stirring plate and centrifuged for 1 min in a centrifuge at 1,000×g. The reaction is incubated at room temperature for 60 min. After this time period, 5 μL of the detection mixture is added, the plate is stirred for 30 s on a stirring plate and centrifuged for 1 min at 1,000×g. Fluorescence is determined in a plate reader and the data are analysed.

[1] = system: human neuronal line SH-SY5Y; assay: Neuroprotection against okadaic acid-induced tau hyperphosphorylation (MTT); type: cell-based; conditions: compounds 1, 5 and 10 μM pre-incubated 1 hour, OA 30 nM 24 hours
Method: The neuroprotective potential of the compounds was evaluated in an okadaic acid (OA)-induced neurodegeneration cell model. OA is an inhibitor of phosphatase 1 and 2 and is normally used to induce tau hyperphosphorylation in different cell lines. In this case, the human neuronal line SH-SY5Y is used. The cells are cultured in DMEM medium supplemented with 10% FBS and 1% penicillin/streptomycin at 37° C. and in an incubator with 5% CO2. The SH-SY5Y cells are sown on a 96-well plate at a density of 60,000 cells per well for 48 hours. After this time period, the cells are pre-incubated with the compounds to be studied at a concentration of 1, 5 and 10 μM for 1 hour. After that time period, OA is added at a concentration of 30 nM, letting the plate incubate for a further 24 hours. Next, the cells were incubated with an MTT solution at 0.5 mg·mL^−1 for at least 4 hours at 37° C. and 5% CO2. Next, the culture medium is removed and the formazan crystals joined to the base of the plate are dissolved with 200 μL of DMSO. Lastly, UV absorbance was measured at 595 nm in a plate reader (Varioskan Flash Microplate reader, Thermo Scientific).

LRRK2 G2019S = LRRK2 G2019S (Homo sapiens (Human), UniProt Q5S007, G2019S); assay: Inhibition of LRRK2 G2019S (Adapta kinase assay); type: biochemical; conditions: Adapta method, 60 min kinase reaction
Method: as §1, §2

Chain of LRRK2 G2019S (Q5S007 whole entry G2019S): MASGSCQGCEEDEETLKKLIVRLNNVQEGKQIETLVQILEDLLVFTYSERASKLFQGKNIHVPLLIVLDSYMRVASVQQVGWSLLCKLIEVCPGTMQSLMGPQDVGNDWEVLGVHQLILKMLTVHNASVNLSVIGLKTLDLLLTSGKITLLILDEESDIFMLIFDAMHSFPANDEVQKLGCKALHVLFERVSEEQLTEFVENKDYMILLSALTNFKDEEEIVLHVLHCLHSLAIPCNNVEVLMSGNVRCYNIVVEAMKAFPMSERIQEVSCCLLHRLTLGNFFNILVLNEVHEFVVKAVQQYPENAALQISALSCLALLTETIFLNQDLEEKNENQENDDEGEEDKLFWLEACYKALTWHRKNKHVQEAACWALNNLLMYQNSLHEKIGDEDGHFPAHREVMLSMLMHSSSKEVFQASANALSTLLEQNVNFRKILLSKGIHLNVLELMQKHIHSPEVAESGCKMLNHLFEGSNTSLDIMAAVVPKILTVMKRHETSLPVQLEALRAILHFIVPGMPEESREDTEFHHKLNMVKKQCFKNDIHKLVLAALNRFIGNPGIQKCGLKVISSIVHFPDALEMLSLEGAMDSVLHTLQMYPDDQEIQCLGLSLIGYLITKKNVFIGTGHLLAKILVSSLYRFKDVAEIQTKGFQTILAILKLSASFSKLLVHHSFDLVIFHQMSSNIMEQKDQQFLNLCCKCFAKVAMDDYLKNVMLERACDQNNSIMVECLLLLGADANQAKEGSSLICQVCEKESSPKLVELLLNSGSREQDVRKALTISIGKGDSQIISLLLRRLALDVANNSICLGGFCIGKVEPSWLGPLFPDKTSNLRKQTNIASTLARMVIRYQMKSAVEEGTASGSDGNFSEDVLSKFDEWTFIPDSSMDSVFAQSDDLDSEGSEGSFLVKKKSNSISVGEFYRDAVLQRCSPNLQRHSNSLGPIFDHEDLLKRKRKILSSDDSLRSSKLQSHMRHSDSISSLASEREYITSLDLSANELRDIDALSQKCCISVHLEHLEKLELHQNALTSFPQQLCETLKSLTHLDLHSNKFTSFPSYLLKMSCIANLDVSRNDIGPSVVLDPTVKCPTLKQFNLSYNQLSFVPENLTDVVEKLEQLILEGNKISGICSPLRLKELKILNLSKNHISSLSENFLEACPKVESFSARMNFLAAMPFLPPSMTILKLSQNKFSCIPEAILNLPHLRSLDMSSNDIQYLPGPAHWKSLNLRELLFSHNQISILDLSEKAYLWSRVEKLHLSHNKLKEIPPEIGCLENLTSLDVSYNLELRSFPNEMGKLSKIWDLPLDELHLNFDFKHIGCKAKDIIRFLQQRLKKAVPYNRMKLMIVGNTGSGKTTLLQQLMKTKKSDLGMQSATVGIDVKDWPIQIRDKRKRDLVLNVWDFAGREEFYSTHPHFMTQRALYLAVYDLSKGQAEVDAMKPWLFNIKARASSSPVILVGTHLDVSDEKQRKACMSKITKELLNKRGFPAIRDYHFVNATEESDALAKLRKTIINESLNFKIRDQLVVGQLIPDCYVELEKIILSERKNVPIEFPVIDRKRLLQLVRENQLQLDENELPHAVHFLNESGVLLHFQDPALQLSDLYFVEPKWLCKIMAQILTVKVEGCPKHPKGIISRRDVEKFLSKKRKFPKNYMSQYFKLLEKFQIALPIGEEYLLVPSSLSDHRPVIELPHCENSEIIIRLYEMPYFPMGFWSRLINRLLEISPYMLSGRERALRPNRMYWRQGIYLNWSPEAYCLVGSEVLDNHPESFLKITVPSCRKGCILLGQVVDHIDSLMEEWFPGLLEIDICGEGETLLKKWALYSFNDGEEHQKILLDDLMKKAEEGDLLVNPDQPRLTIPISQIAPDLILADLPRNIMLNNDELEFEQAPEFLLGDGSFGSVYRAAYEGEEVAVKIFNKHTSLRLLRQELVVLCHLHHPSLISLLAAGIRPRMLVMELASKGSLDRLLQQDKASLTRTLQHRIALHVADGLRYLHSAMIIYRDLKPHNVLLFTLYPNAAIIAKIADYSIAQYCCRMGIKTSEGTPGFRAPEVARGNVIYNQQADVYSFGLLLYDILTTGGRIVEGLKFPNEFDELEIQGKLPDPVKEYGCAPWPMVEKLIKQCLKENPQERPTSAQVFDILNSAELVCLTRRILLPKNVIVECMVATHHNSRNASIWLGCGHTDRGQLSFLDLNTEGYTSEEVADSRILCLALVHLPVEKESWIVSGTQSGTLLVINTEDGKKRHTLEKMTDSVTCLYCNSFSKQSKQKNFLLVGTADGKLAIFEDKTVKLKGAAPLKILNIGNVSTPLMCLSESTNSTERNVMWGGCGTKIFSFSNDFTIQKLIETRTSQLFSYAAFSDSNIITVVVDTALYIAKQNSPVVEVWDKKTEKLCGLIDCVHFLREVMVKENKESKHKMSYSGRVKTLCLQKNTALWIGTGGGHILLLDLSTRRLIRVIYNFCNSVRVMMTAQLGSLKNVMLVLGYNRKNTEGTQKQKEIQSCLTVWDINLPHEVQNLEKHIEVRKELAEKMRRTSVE
Chain of LRRK2 (Q5S007 whole entry): as the sequence (Q5S007 whole entry G2019S) above, with S2019G counted along it

Papp at 2.5 h (in vitro) [×10⁻⁶ cm/s]	IC50 (LRRK2) [nM]	IC50 (LRRK2 G2019S) [nM]	Pe (10−6 cm s−1) (in vitro)	Prediction of penetration in the central nervous system (CNS) (in vitro)	Structure (SMILES)	Neuroprotection against okadaic acid damage / tau hyperphosphorylation [1]	Blood-brain barrier penetration by passive diffusion (in vitro)
4.27 ± 2.7	1950	1170			CC(C)c1ccc2nc(NC(=O)c3ccc(N4CCOCC4)cc3)sc2c1 [Compound 10, N-(6-isopropylbenzothiazole-2-yl)-4-morpholinobenzamide]	prevents the damage caused by the okadaic acid	
			9.8 ± 0.5 10−6 cm s−1		CN(C)CCCN1c2ccccc2Sc2ccccc21 [Promazine, reference compound]		
	368	108			COc1ccc2nc(NC(=O)c3ccc(N4CCOCC4)cc3)sc2c1 [Compound 2, N-(6-methoxybenzothiazole-2-yl)-4-morpholinobenzamide]	prevents the damage caused by the okadaic acid	
	1060	293			O=C(Nc1nc2ccc(C(F)(F)F)cc2s1)c1ccc(N2CCOCC2)cc1 [Compound 3, N-(6-trifluoromethylbenzothiazole-2-yl)-4-morpholinobenzamide]	prevents the damage caused by the okadaic acid	
			0.6 ± 0.2 10−6 cm s−1		CN1C(C(=O)Nc2ccccn2)=C(O)c2ccccc2S1(=O)=O [Piroxicam, reference compound]		
	190	426	5.1 ± 0.1 10−6 cm s−1		O=C(Nc1nc2ccc(F)cc2s1)c1ccc(N2CCOCC2)cc1 [Compound 6, N-(6-fluorobenzothiazole-2-yl)-4-morpholinobenzamide]	prevents the damage caused by the okadaic acid	capable of penetrating the blood-brain barrier by passive diffusion
3.42 ± 1.26	777			CNS+/−	O=C(Nc1nc2ccc(Cl)cc2s1)c1ccc(N2CCOCC2)cc1 [Compound 5, N-(6-chlorobenzothiazole-2-yl)-4-morpholinobenzamide]	prevents the damage caused by the okadaic acid	
4.28 ± 3.45	4000	1190			CCCOc1ccc2nc(NC(=O)c3ccc(N4CCOCC4)cc3)sc2c1 [Compound 9, N-(6-propoxybenzothiazole-2-yl)-4-morpholinobenzamide]	prevents the damage caused by the okadaic acid	
	474	1380			O=C(Nc1nc2ccc(Br)cc2s1)c1ccc(N2CCOCC2)cc1 [Compound 8, N-(6-bromobenzothiazole-2-yl)-4-morpholinobenzamide]	prevents the damage caused by the okadaic acid	
	696	360	13.4 ± 2.4 10−6 cm s−1		O=C(Nc1nc2ccccc2s1)c1ccc(N2CCOCC2)cc1 [Compound 1, N-(benzothiazole-2-yl)-4-morpholinobenzamide]	prevents the damage caused by the okadaic acid	capable of penetrating the blood-brain barrier by passive diffusion

Structure (SMILES)	Papp at 2.5 h (in vitro) [×10⁻⁶ cm/s]	IC50 (LRRK2) [nM]	IC50 (LRRK2 G2019S) [nM]	Pe (10−6 cm s−1) (in vitro)	Prediction of penetration in the central nervous system (CNS) (in vitro)	Neuroprotection against okadaic acid damage / tau hyperphosphorylation [1]	Blood-brain barrier penetration by passive diffusion (in vitro)
Cc1ccc2nc(NC(=O)c3ccc(N4CCOCC4)cc3)sc2c1 [Compound 4, N-(6-methylbenzothiazole-2-yl)-4-morpholinobenzamide]		523	332	19.0 ± 2.6 10−6 cm s−1		prevents the damage caused by the okadaic acid	capable of penetrating the blood-brain barrier by passive diffusion
CCOc1ccc2nc(NC(=O)c3ccc(N4CCOCC4)cc3)sc2c1 [Compound 7, N-(6-ethoxybenzothiazole-2-yl)-4-morpholinobenzamide]		308	158			prevents the damage caused by the okadaic acid	
